Results on one compound are retold here after patent publication US9441012B2, “Fluorinated epoxyketone-based compounds and uses thereof as proteasome inhibitors” (FLUORINOV PHARMA INC., priority 2012, dated 2016).

Data set [1] has as its target purified beta proteasome subunits from Thermoplasma acidophilum; whole cell lysates from LP1 (Thermoplasma acidophilum, UniProt P28061). The data set can be described thus: Enzymatic activity of purified proteasomes (FIG. 1). It counts as biochemical, Thermoplasma acidophilum; human. As to conditions: compared to bortezomib. On the procedure:
Purified beta proteasome subunits from the archaebacteria Thermoplasma acidophilum (A) or whole cell lysates from the human myeloma cell line LP1 (B).
Increasing concentrations ([…]) of compounds of Formula (I) and bortezomib were incubated with […] purified beta subunits of proteasomes isolated from Thermoplasma acidophilum in assay buffer supplemented with 2 mM ATP. DMSO alone was used as a control. After 1 hour of incubation at 37° C., the Suc-Leu-Leu-Val-Tyr-AMC substrate was added at a final concentration of 40 μM and CT-L proteasome activity was measured as described above for tumor cell lysates.
Purified beta proteasome subunits from the archaebacteria Thermoplasma acidophilum (A) and whole cell lysates from the human myeloma cell line LP1 (B) were used in the study.

Data set [2] deals with AML2 mouse xenograft leukemia model. The data set can be described thus: Leukemia AML2 xenograft model. It counts as in vivo. Particulars: 30 mg/kg oral gavage. The protocol:
Sublethally irradiated NOD-SCID mice bearing an established human tumor xenograft derived from RL and BALB/c mice challenged with the murine tumor cell line AML2 were treated twice weekly on days 1 and 2 (QD×2) with a dose of 30 mg/kg to 200 mg/kg of the compound of Example 1 by oral gavage. Dosing began on Day 6 post tumor challenge.

For data set [3], the system named is primary CD138+ myeloma cells. The data set can be described thus: Viability of primary patient samples (Annexin V, anti-CD138, flow cytometry). It counts as cell-based, human. Particulars: 24 hours. On the procedure: Apoptosis was measured by staining cells treated with compounds of Formula I with annexin V-fluorescein isothiocyanate and propidium iodide (both from Biovision Research Products, Mountain View, Calif.) and flow cytometry according to manufacturer's instructions and as previously described [Blood. 2005, 105(10), 4043-4050]. Experiments were performed at least in duplicate and repeated at least twice (n=4-20 data points). Viable primary myeloma cells were identified by staining with phycoerythrin-conjugated mouse monoclonal anti-CD138 antibody (20 μL/[…] cells; Beckman Coulter, Brea, Calif.). The percentage of myeloma cells that were CD138 positive and annexin V negative after compounds of Formula (I) treatment compared with untreated samples was quantified as a marker of cell viability as previously described [Blood. 2007, 109(12), 5430-5438].
Effects of a representative of compounds of Formula I (the compound of Example 1) on the viability of primary malignant and normal hematopoietic cells isolated from patient samples was also studied. […] Viability of normal hematopoietic cells (CD138−) and myeloma cells (CD138+) were measured by flow cytometry with PE-labeled anti-CD138 and FITC-labeled Annexin V co-staining. […]
On the technique in general: In flow cytometry, cells or beads pass a laser one at a time.

In data set [4] the test system is MM.1S tumor cells. Nature of the data set: Myeloma MM.1S mouse xenograft model. It counts as in vivo. The protocol:
The mice were irradiated (200 rads) using a Co60 irradiator source. After 24 his, each mouse was inoculated subcutaneously with 5×10^6 MM.1S tumor cells in 0.1 ml PBS for tumor development. Treatments were started when the tumor volume reached 100 mm^3. Each treatment group consisted of 10 mice. The compound of Example 1 was administrated to the tumor-bearing mice according to a specific predetermined regimen.

Data set [5] relates to standard panel of 12 tumor cell lines. Nature of the data set: Hollow fiber assay (HFA). It counts as in vivo, mouse. As to conditions: ip, 75 mg/kg/dose and 35.5 mg/kg/dose, QD x 4. On the procedure:
Hollow fibre assay in vivo pharmacodynamic studies were carried out. This in vivo animal model uses semi-permeable biocompatible fibres that are filled with cancer cells, heat-sealed and implanted surgically (s.c. or i.p.) in mice or rats, which can then be treated with chemotherapeutics. Many different cell lines from different tissue origins and cellular characteristics can be encapsulated within the fibres, providing a cost-effective screening method.
The Oncology Program Screening and Characterization Strategy group at NCI uses HFA, which provides quantitative indices of drug efficacy with minimal expenditures of time and materials. Thus, the HFA is being utilized as the initial in vivo experience for compounds of Formula I.
A total of 3 different tumor lines are prepared for each experiment so that each mouse receives 3 intraperitoneal implants (1 of each tumor line) and 3 subcutaneous implants (1 of each tumor line). A compound is considered for xenograft testing if it produces cell kill of any cell line at either dose level evaluated, or it has a combined ip+sc score of 20 or greater, a sc score of 8 or greater. […]
The compound of Example 1 was evaluated in an HFA assay via ip administration at two doses; a 75 mg/kg/dose and a 35.5 mg/kg/dose, QD […] 4. […]

[6] abbreviates: 100 mg/kg p.o, days 1, 3, 5/wk×4 wks.

purified beta proteasome subunits from Thermoplasma acidophilum; whole cell lysates from LP1, sequence (P28061 9-211): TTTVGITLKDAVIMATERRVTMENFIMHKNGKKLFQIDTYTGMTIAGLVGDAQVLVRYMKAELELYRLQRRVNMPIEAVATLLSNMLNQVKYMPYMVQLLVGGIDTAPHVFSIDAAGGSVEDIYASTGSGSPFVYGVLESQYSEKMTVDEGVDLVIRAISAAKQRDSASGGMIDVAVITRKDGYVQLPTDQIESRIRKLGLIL
purified beta proteasome subunits from Thermoplasma acidophilum; whole cell lysates from LP1, sequence (P25156 whole entry partner): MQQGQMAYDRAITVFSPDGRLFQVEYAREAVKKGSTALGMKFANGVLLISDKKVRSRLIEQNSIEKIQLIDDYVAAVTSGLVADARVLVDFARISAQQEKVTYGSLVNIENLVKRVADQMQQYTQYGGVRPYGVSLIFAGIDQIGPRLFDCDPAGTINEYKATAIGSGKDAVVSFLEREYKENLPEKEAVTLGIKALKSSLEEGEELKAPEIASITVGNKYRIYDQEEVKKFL

Regarding `Cc1ncc(C(=O)N[C@@H](COC(F)F)C(=O)N[C@@H](COC(F)F)C(=O)N[C@@H](Cc2ccccc2)C(=O)[C@@]2(C)CO2)s1` [Example 1, 2-methyl-thiazole-5-carboxylic acid ((S)-1-{(S)-1-[(S)-1-benzyl-2-((R)-2-methyloxiranyl)-2-oxo-ethylcarbamoyl]-2-difluoromethoxyethylcarbamoyl}-2-difluoromethoxyethyl)-amide], the “effect on the enzymatic activity of purified proteasomes” value in data set [1] is recorded as “disrupts the ubiquitin-proteasome system”. For the same compound, the “gross adverse effects including reductions in body weight or alterations in behaviour” value in data set [2] is “no observed gross adverse effects”; in data set [4] (50 mg/kg p.o, qd×28 days) it was “no observed gross adverse effects”; in data set [4] (setting [6]) it was “no observed gross adverse effects”. Moreover, the tumor growth inhibition entry in data set [2] (twice weekly days 1 and 2 (QD×2)) was “greater than 40%”. Also, the “viability of primary CD138+ myeloma cells over CD138− normal hematopoietic cells” value in data set [3] (patient bone marrow or peripheral blood samples) is reported as “selectively reduced the viability”. For the same compound, the “cell death in the plasma cells of the myeloma patients” value in data set [3] (patient samples) is on record as “nanomolar concentrations”. Moreover, the “antitumor activity vs. control” value in data set [4] (50 mg/kg p.o, qd×28 days) is recorded as “statically significant antitumor activity”; in data set [4] (setting [6]), “statically significant antitumor activity”. Moreover, in data set [5], the “cell killing in hollow fiber assay” value is “produced cell killing of multiple cell lines”.
